Common to all, as to type: cell-based
Experiment [1] has as its system Wnt signalling (TOPFlash reporter, STF cells). Kind of experiment: Wnt STF TOPFlash reporter dose response (Wnt3A-stimulated). Here is the method: (§1) Wnt STF reporter cells (HEK 293 cells stably transfected with TOPFlash reporter) and STF3A reporter cells (STF cells with constitutive secretion of Wnt3A) were kind gifts from David Virshup (Duke-NUS Graduate Medical School, Singapore). HCT116, DLD-1, and SW480 cell lines were obtained from ATCC. The Hippo pathway TEAD reporter (cat. #60618) and Myc signalling pathway reporter (cat. #60520) cells lines were purchased from BPS Bioscience, Inc.
(§2) The Wnt STF reporter cells were seeded as 20,000 cells in 100 μL culture medium per well in 96-well plates (Corning cat. #3903, Falcon cat. #353072). The next day, 5-fold dilutions of the compounds in DMSO were added to the cells at a final concentration of 1% DMSO. The cells were also stimulated with 500 ng/mL recombinant human Wnt3A (RnD systems, cat. #5036-WN-010). After 24 hr incubation, the viability of the cells was determined with cell counting kit-8 (CCK-8, Dojindo cat. #CK04) cell viability reagent according to the manufacturer's protocol while the TOPFlash reporter activity was determined with Steady-Glo luciferase reagent.
(§3) The average signal from DMSO treated wells was calculated for each plate, and the signal from each treatment well was normalized against the average DMSO signal from the respective plate. The normalized values were plotted against the concentrations tested using GraphPad Prism 5, and the EC50 values were determined through either three- or four-parameter nonlinear regression.

For experiment [2], the system named is Wnt signalling (TOPFlash reporter, STF3A cells). Nature of the experiment: Wnt STF3A TOPFlash reporter dose response (constitutive Wnt3A). On the procedure: as §1
(§4) The Wnt STF3A reporter cells were seeded as 20,000 cells in 100 μL culture medium per well in 96-well plates (Corning cat. #3903, Falcon cat. #353072). The next day, 5-fold dilutions of the compounds in DMSO were added to the cells at a final concentration of 1% DMSO. After 24 hr incubation, the viability of the cells was determined with cell counting kit-8 (CCK-8, Dojindo cat. #CK04) cell viability reagent according to the manufacturer's protocol while the TOPFlash reporter activity was determined with Steady-Glo luciferase reagent.
as §3

Experiment [3] deals with Myc reporter (Luc)-HCT116 cells. Kind of experiment: Myc signalling reporter dose response. To be noted: Homo sapiens, HCT-116, 24 hr. On the procedure:
The Myc reporter (Luc)-HCT116 cells were seeded as 25,000 cells in 100 μL assay medium per well in 96-well plates (Corning cat. #3903, Falcon cat. #353072). The assay medium consists of the growth medium without G-418. The next day, 4-fold dilutions of the compounds in DMSO were added to the cells at a final concentration of 1% DMSO. After 24 hr incubation, the viability of the cells was determined with PrestoBlue cell viability reagent while the luciferase reporter activity was determined with Steady-Glo luciferase reagent.
as §3

For experiment [4], the system named is Hippo pathway TEAD reporter cells. Kind of experiment: Hippo signalling TEAD reporter dose response. To be noted: 24 hr, activation of the Hippo pathway (decrease of reporter signal). On the procedure: The Hippo TEAD reporter cells were seeded as 100,000 cells in 100 μL assay medium per well in 96-well plates (Corning cat. #3903, Falcon cat. #353072). The assay medium consists of the growth medium without G-418. The next day, 5-fold dilutions of the compounds in DMSO were added to the cells at a final concentration of 1% DMSO. After 24 hr incubation, the viability of the cells was determined with CCK-8 cell viability reagent while the luciferase reporter activity was determined with Steady-Glo luciferase reagent.
as §3

For experiment [5], the system named is DLD-1 cells. Nature of the experiment: Dose response viability of CRC cells (CellTiter-Glo). To be noted: Homo sapiens, 24 hr. On the procedure: (§5) HCT116, DLD-1, and SW480 cells were seeded as 5,000 cells in 100 μL growth medium per well in 96-well plates (Corning cat. #3903). The next day, 5-fold dilutions of the compounds in DMSO were added to the cells at a final concentration of 1% DMSO. After 24 hr incubation, the viability of the cells was determined with CellTiter-Glo luminescent cell viability reagent (Promega cat. #G7573) according to the manufacturer's protocol.
as §3
On the technique in general: Cellular ATP, detected with luciferase, serves as a proxy for viable cell number.

Experiment [6] deals with HCT116 cells. Described as above. As to conditions: Homo sapiens, HCT-116, 24 hr. Here is the method: as §5, §3
The subject of experiment [7] is SW480 cells. The description is as above. As to conditions: Homo sapiens, 24 hr. On the procedure: as §5, §3
For experiment [8], the system named is STF cells. Kind of experiment: Viability (toxicity) of STF reporter cells, CCK-8. As to conditions: Table 3; STF reporter cell line. Here is the method: as §2, §3
The test system of experiment [9] is STF3A cells. Nature of the experiment: Viability (toxicity) of STF3A reporter cells, CCK-8. To be noted: Table 3; STF3A reporter cell line. On the procedure: as §4, §3
Experiment [10] has as its system Wnt target genes in HCT116 CRC cells. Kind of experiment: Expression of beta-catenin (CTNNB1) and Wnt target genes in HCT116 CRC cells. Here is the method: The effects of the GB1874 analogues were tested on the expression of Wnt target genes in HCT116 CRC cells.
Experiment [11] concerns HCT116 cells. Kind of experiment: Proliferation assay (CellTiter-Glo). To be noted: 10 μM daily. Here is the method: HCT 116 cells were seeded as 3,000 cells in 100 μL growth medium per well in 96-well plates (Corning cat. #3903) and allowed to attached overnight. Cells were then treated continuously with compounds at a final concentration of 10 μM, 0.1% DMSO, for 4 days with daily medium change. Cell proliferation each day was determined using CellTiter-Glo luminescent cell viability assay (Promega cat. #G7573) according to the manufacturer's protocol.

For experiment [12], the system named is CRC948. Nature of the experiment: Viability of primary patient-derived colorectal cancer cell line.
The subject of experiment [13] is CRC1177. The description is as above.
Experiment [14] relates to CRC1258. The description is as above. To be noted: CRC1258, Liver Met.
Experiment [15] relates to CRC1414. The experiment is described as above.
Experiment [16] deals with CRC1463. Described as above.
Experiment [17] relates to CRC1489. Described as above.
Experiment [18] deals with CRC1671. Described as above.
Experiment [19] relates to CRC1707. The description is as above.
The test system of experiment [20] is CRC1775. The experiment is described as above.
Experiment [21] concerns CRC1837. The experiment is described as above. To be noted: CRC1837, Liver Met.
Experiment [22] relates to CRC1846. The experiment is described as above.
In experiment [23] the test system is CRC1850. The experiment is described as above. To be noted: CRC1850, Liver Met.
Experiment [24] relates to CRC2001. Described as above.
Experiment [25] concerns CRC2255. The experiment is described as above.
The test system of experiment [26] is CRC2367. The experiment is described as above.
Experiment [27] concerns CRC2413. The description is as above.
In experiment [28] the test system is CRC2423. The description is as above.
Experiment [29] relates to CRC2440. The experiment is described as above.
Where [30] appears, read: Table 3, STF reporter cell line, read-out: STF Inhibition IC50.
The mark [31] stands for this setting: Table 3, STF3A reporter cell line, read-out: STF3A Inhibition IC50.

Molecules are shown by their SMILES. Read-outs that look alike come from different tables or passages of the source.

`CCc1ccc(-c2nc(CSCC(=O)NCCc3ccccc3)c(C)o2)cc1` [iCRT3, reference compound]: the IC50 in experiment [1] (Table 1, STF reporter cells, 500 ng/mL Wnt3A, 24 hr, read-out: IC50 Wnt (STF)) was 27 µM; in experiment [1] (setting [30]), 11 µM; in experiment [2] (Table 1, STF3A reporter cells, 24 hr, read-out: IC50 Wnt (STF3A)) it was 64 µM; in [2] (setting [31]) it was 42 µM; in experiment [3], 50 µM; in experiment [4] (read-out: IC50 Hippo (activation)), 1.6 µM. Moreover, the IC50 in experiment [8] is 88 µM; in experiment [9], 74 µM. Further, the “IC50 Hippo (activation)” value in experiment [4] is reported as “activated”. Besides, the EC50 in experiment [5] worked out at 48 µM; in [6] it was 39 µM; in experiment [7], 64 µM. Also, the “beta-catenin (CTNNB1) gene expression” value in [10] is recorded as “lesser effect”. Moreover, in experiment [10], the “expression of Wnt target genes AXIN2, BIRC5, BMP4, CCND1” value (“expression of Wnt target genes AXIN2” for short) is “potently inhibit Wnt target genes”.
As for `CC1CCCC(C)N1C(=O)CSc1nnc(COc2ccccc2)n1Cc1ccccc1` (stereo not drawn) [GB1874C], the IC50 is 7.6 µM in experiment [1] (setting [30]), 46 µM in experiment [2] (setting [31]), 76 µM in experiment [8] and 78 µM in [9]. Moreover, in experiment [10], the “beta-catenin (CTNNB1) gene expression” value is “lesser effect”. Also, the “expression of Wnt target genes AXIN2” value in [10] was “potently inhibit Wnt target genes”.
In the case of `O=C(CSc1nnc(Cc2ccccc2)n1Cc1ccco1)NC1CCCC1` [GB1874B], the IC50 is 48 µM in [1] (setting [30]), greater than 100 µM in experiment [2] (setting [31]), greater than 100 µM in experiment [8] and greater than 100 µM in experiment [9].
On to `Cc1ccc2nc(NC(=O)CSc3nc4c(c(=O)n3-c3ccccc3)SCC4)sc2c1` [IWP-2], for which, in [11], the “growth of HCT116 cells” value is given as “less effective at inhibiting the growth of HCT116 cells”.
`Oc1nc(-c2ccc(C(F)(F)F)cc2)nc2c1CSCC2` [XAV939, reference compound]: the “growth of HCT116 cells” value in experiment [11] was “less effective at inhibiting the growth of HCT116 cells”. Also, the EC50 in experiment [12] was greater than 250 µM; in experiment [13] it was 250 µM; in experiment [14], 70 µM; in experiment [15], greater than 250 µM; in experiment [16] it was 250 µM; in [17], 105 µM. The EC50 in experiment [18] was greater than 250 µM; in experiment [19], 135 µM; in [20], greater than 250 µM; in [21], greater than 250 µM; in [22] it was 239 µM; in experiment [23], 208 µM. In addition, the EC50 in experiment [24] is greater than 250 µM; in experiment [25] it was greater than 250 µM; in [26], greater than 250 µM; in experiment [27] it was 200 µM; in experiment [28], 250 µM; in [29], 75 µM.
In the case of `Cc1ccccc1OCc1nnc(SCCSc2nnc(COc3ccccc3C)n2Cc2ccccc2)n1Cc1ccccc1` [GB1874A], the IC50 was 28 µM in experiment [1] (setting [30]), 1.2 µM in experiment [2] (setting [31]), greater than 100 µM in experiment [8] and greater than 100 µM in experiment [9].
In the case of `CCc1ccc(OCc2nnc(SC3CCCCC3=O)n2C(C)c2ccccc2)cc1` (stereo not drawn) [GB1874H], the IC50 in experiment [1] (setting [30]) came to 5 µM; in experiment [2] (setting [31]), 11 µM; in experiment [8] it was 49 µM; in experiment [9] it was 46 µM. The “beta-catenin (CTNNB1) gene expression” value in [10] is recorded as “lesser effect”. Also, the “expression of Wnt target genes AXIN2” value in experiment [10] is “potently inhibit Wnt target genes”.
Take `CCc1ccc(OCc2nnc(SC(C)C(=O)C3C4CC5CC(C4)CC3C5)n2Cc2ccccc2)cc1` (stereo not drawn) [GB1874G]: the IC50 in experiment [1] (setting [30]) was 3.9 µM; in [1] (unit M, read-out: STF IC50), 3.9 µM; in experiment [2] (setting [31]) it was 6.7 µM; in experiment [8], greater than 100 µM; in experiment [9] it was greater than 100 µM. In addition, in experiment [10], the “beta-catenin (CTNNB1) gene expression” value is listed as “lesser effect”. Moreover, the “expression of Wnt target genes AXIN2” value in experiment [10] is given as “potently inhibit Wnt target genes”.
Take `Cc1ccc(OCc2nnc(SCC(=O)c3ccc(-c4ccccc4)cc3)n2Cc2ccco2)cc1` [GB1874F]: the IC50 in [1] (setting [30]) is 5.4 µM; in experiment [1] (unit M, read-out: STF IC50) it was 5.4 µM; in [2] (setting [31]), 10 µM; in experiment [8], 100 µM; in experiment [9], greater than 100 µM. The “beta-catenin (CTNNB1) gene expression” value in experiment [10] is “lesser effect”. The “expression of Wnt target genes AXIN2” value in experiment [10] is on record as “potently inhibit Wnt target genes”.
For `CCOc1ccc(C(=O)CSc2nnc(COc3ccccc3)n2Cc2ccccc2)cc1` [GB1874D], the IC50 is 21 µM in experiment [1] (setting [30]), 21 µM in [2] (setting [31]), greater than 100 µM in [8] and 25 µM in experiment [9].
With `CCOC(=O)C(C)(C)Sc1nnc(COc2ccccc2)n1Cc1ccccc1` [GB1874E], the IC50 is 12 µM in experiment [1] (setting [30]), 16 µM in [2] (setting [31]), 71 µM in [8] and 100 µM in [9]. In experiment [10], the “beta-catenin (CTNNB1) gene expression” value is reported as “lesser effect”. In addition, the “expression of Wnt target genes AXIN2” value in experiment [10] was “potently inhibit Wnt target genes”.

In general, IC50 refers to the concentration needed to halve the response being measured. The term EC50 denotes the concentration needed to bring the measured effect to its halfway point. The low end stands for a more potent agent, the high end for a less potent agent.

The record behind these values is US12661338B2, “Heterocyclic compounds as modulators of beta-catenin / TCF4 interaction” (AGENCY FOR SCIENCE, TECHNOLOGY AND RESEARCH, priority 2019, dated 2026).
